According to patent US20260226086A1, “COMPOUNDS AND COMPOSITIONS AS STAT3 DEGRADERS AND USES THEREOF” (REGENTS OF THE UNIVERSITY OF MICHIGAN, priority 2023, published 2026):
Like-named read-outs stand apart in the source and are kept apart here.

Tests used:
Type in all cases: cell-based
SU-DHL-1 cells = assay: CellTiter-Glo 2.0 cell viability assay, SU-DHL-1; settings: Homo sapiens, 96 h, 4 days
Experimental: For example, cell viability may be determined by CellTiter-Glo 2.0 Cell Viability Assay. In a typical procedure, cells seeded at certain amounts of cells (e.g., 1000 cells) per well are incubated with serially diluted compounds for certain period (e.g., 4 days) under certain conditions (e.g., at 37° C. with 5% CO2). At the end of treatment, CellTiter-Glo 2.0 is added to the wells and luminescence is acquired on TECAN SPARK plate reader. Untreated cells are used as control, Data points are fit with an equation (e.g., a four-parameter equation) to generate a concentration-response curve. IC50 values are calculated using a nonlinear regression analysis of the mean±SD from triplicate.
SU-DHL-1 and SUP-M2 cell viability was determined by CellTiter-Glo 2.0 Cell Viability Assay (Promega). SU-DHL-1 cell line was purchased from ATCC (Manassas, VA) and SUP-M2 (ACC-509) was purchased from DSMZ (Germany). RPMI 1640 medium and fetal bovine serum (FBS) were purchased from Gibco/Thermo Fisher Scientific. In a typical procedure, cells seeded at 1000 cells per well in 384-well white plates (Corning) were incubated with serially diluted compounds for 4 days at 37° C. with 5% C02. At the end of treatment, CellTiter-Glo 2.0 was added to the wells and luminescence was acquired on TECAN SPARK plate reader. Untreated cells were used as control. Data points were fit with a four-parameter equation to generate a concentration-response curve. IC50 values were calculated using a nonlinear regression analysis of the mean±SD from triplicate.

SUP-M2 cells = assay: CellTiter-Glo 2.0 cell viability assay, SUP-M2; settings: SUP-M2, 96 h, 4 days
Procedure, shortened: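 IC50 derived by four-parameter nonlinear regression on triplicate luminescence data (CellTiter-Glo 2.0), normalised to untreated controls. Cells plated at 1000/well received serial compound dilutions for 4 days at 37 °C with 5% CO2.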

STAT3 = target: T1, STAT3 (Homo sapiens, UniProt P40763); assay: HiBiT assay, STAT3 degradation in STAT3-HiBiT KI HeLa cells; settings: for DC50: read-out: STAT3 Degradation (HeLa 24 h HiBit) DC50
T1 construct: This cell line is a clone created by using CRISPR-Cas9 to fuse HiBiT to the 3′ end of STAT3 in HeLa cells; host or cells: STAT3-HiBiT KI HeLa cell line (CRISPR-Cas9 knock-in clone)
Procedure, shortened: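 Luminescence of endogenous HiBiT-tagged STAT3 (C-terminal knock-in, HeLa) was measured with lytic Nano-Glo detection after 24 h exposure to serially diluted compounds at 37 °C. Cells plated at 20000/well; untreated cells served as control, and triplicate means were fit by four-parameter regression to give IC50.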

T1 sequence (P40763 whole entry): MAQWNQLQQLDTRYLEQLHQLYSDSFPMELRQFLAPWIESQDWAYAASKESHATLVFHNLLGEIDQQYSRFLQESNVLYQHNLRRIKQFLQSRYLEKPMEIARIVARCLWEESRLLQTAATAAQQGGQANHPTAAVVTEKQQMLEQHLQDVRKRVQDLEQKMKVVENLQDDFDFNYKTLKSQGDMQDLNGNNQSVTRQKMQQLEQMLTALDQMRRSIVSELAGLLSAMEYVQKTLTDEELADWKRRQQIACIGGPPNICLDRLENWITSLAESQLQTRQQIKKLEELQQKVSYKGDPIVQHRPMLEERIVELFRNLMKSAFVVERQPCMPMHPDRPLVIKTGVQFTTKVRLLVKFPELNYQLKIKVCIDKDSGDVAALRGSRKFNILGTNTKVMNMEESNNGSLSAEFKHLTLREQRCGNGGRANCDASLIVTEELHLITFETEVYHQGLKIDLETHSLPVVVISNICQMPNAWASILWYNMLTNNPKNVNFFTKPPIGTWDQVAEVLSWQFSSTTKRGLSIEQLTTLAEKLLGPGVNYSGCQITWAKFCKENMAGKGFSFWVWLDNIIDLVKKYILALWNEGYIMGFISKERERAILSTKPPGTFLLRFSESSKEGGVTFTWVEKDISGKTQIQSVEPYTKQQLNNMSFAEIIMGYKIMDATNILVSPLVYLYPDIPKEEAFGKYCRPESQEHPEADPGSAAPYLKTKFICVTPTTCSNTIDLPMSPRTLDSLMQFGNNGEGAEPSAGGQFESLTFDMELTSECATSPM

| SMILES | IC50 (SU-DHL-1 cells) [nM] | IC50 (SUP-M2 cells) [nM] | DC50 (STAT3; 24 h) [nM] | Dmax at 1 µM (STAT3; 24 h) [%] | DC50 (STAT3) [nM] |
| --- | --- | --- | --- | --- | --- |
| Cc1ncsc1-c1ccc([C@H](C)NC(=O)[C@@H]2C[C@@H](O)CN2C(=O)[C@@H](NC(=O)CCCCCCCCC(=O)N2CC[C@H]3CC[C@@H](C(=O)N[C@@H](CCC(N)=O)C(=O)NC(c4ccccc4)c4ccccc4)N3C(=O)[C@@H](NC(=O)c3cc4cc(C(=O)P(=O)(O)O)ccc4[nH]3)C2)C(C)(C)C)cc1 [Compound 53, (2-(((5S,8S,10aR)-8-(((S)-5-amino-1-(benzhydrylamino)-1,5-dioxopentan-2-yl)carbamoyl)-3-(10-(((S)-1-((2S,4R)-4-hydroxy-2-(((S)-1-(4-(4-methylthiazol-5-yl)phenyl)ethyl)carbamoyl)pyrrolidin-1-yl)-3,3-dimethyl-1-oxobutan-2-yl)amino)-10-oxodecanoyl)-6-oxodecahydropyrrolo[1,2-a][1,5]diazocin-5-yl)carbamoyl)-1H-indole-5-carbonyl)phosphonic acid] | 100 to 1000 | 100 to 1000 | 100 to 1000 |  |  |
| CCS(=O)(=O)c1ccc(CNC(=O)[C@H](CCC(N)=O)NC(=O)[C@@H]2CC[C@@H]3CCN(C(=O)CCCCc4cn([C@@H](C(=O)N5C[C@H](O)C[C@H]5C(=O)N[C@H](C)c5ccc(-c6scnc6C)cc5)C5CCOCC5)nn4)C[C@H](NC(=O)c4cc5cc(C(=O)P(=O)(O)O)ccc5[nH]4)C(=O)N32)cc1 [Compound 24, (2-(((5S,8S,10aR)-8-(((S)-5-amino-1-((4-(ethylsulfonyl)benzyl)amino)-1,5-dioxopentan-2-yl)carbamoyl)-3-(5-(1-((R)-2-((2S,4R)-4-hydroxy-2-(((R)-1-(4-(4-methylthiazol-5-yl)phenyl)ethyl)carbamoyl)pyrrolidin-1-yl)-2-oxo-1-(tetrahydro-2H-pyran-4-yl)ethyl)-1H-1,2,3-triazol-4-yl)pentanoyl)-6-oxodecahydropyrrolo[1,2-a][1,5]diazocin-5-yl)carbamoyl)-1H-indole-5-carbonyl)phosphonic acid] | < 10 | < 10 |  | > 80 | < 10 |
| CC(=O)N1CC[C@H]2CC[C@@H](C(=O)N[C@@H](CCC(N)=O)COc3cccc(CCCc4cn([C@H](C(=O)N5C[C@H](O)C[C@H]5C(=O)N[C@@H](C)c5ccc(-c6scnc6C)cc5)C(C)(C)C)nn4)c3Cl)N2C(=O)[C@@H](NC(=O)c2cc3cc(C(=O)P(=O)(O)O)ccc3[nH]2)C1 [Compound 1, (2-(((5S,8S,10aR)-3-acetyl-8-(((S)-5-amino-1-(2-chloro-3-(3-(1-((S)-1-((2S,4R)-4-hydroxy-2-(((S)-1-(4-(4-methylthiazol-5-yl)phenyl)ethyl)carbamoyl)pyrrolidin-1-yl)-3,3-dimethyl-1-oxobutan-2-yl)-1H-1,2,3-triazol-4-yl)propyl)phenoxy)-5-oxopentan-2-yl)carbamoyl)-6-oxodecahydropyrrolo[1,2-a][1,5]diazocin-5-yl)carbamoyl)-1H-indole-5-carbonyl)phosphonic acid] | < 10 | < 10 | < 10 | > 80 |  |
| CC(=O)N1CC[C@H]2CC[C@@H](C(=O)N[C@@H](CCC(N)=O)COc3cccc(CCCc4cn([C@H](C(=O)N5C[C@H](O)C[C@H]5C(=O)N[C@@H](C)c5ccc(-c6scnc6C)cc5)C5CCCCC5)nn4)c3Cl)N2C(=O)[C@@H](NC(=O)c2cc3cc(C(=O)P(=O)(O)O)ccc3[nH]2)C1 [Compound 19, (2-(((5S,8S,10aR)-3-acetyl-8-(((S)-5-amino-1-(2-chloro-3-(3-(1-((S)-1-cyclohexyl-2-((2S,4R)-4-hydroxy-2-(((S)-1-(4-(4-methylthiazol-5-yl)phenyl)ethyl)carbamoyl)pyrrolidin-1-yl)-2-oxoethyl)-1H-1,2,3-triazol-4-yl)propyl)phenoxy)-5-oxopentan-2-yl)carbamoyl)-6-oxodecahydropyrrolo[1,2-a][1,5]diazocin-5-yl)carbamoyl)-1H-indole-5-carbonyl)phosphonic acid] | < 10 | < 10 | < 10 | > 80 |  |
| CCS(=O)(=O)c1ccc(CNC(=O)[C@H](CCC(N)=O)NC(=O)[C@@H]2CC[C@@H]3CCN(C(=O)CCCCCc4cn([C@H](C(=O)N5C[C@H](O)C[C@H]5C(=O)N[C@@H](C)c5ccc(-c6scnc6C)cc5)C(C)(C)C)nn4)C[C@H](NC(=O)c4cc5cc(C(=O)P(=O)(O)O)ccc5[nH]4)C(=O)N32)cc1 [Compound 14, (2-(((5S,8S,10aR)-8-(((S)-5-amino-1-((4-(ethylsulfonyl)benzyl)amino)-1,5-dioxopentan-2-yl)carbamoyl)-3-(6-(1-((S)-1-((2S,4R)-4-hydroxy-2-(((S)-1-(4-(4-methylthiazol-5-yl)phenyl)ethyl)carbamoyl)pyrrolidin-1-yl)-3,3-dimethyl-1-oxobutan-2-yl)-1H-1,2,3-triazol-4-yl)hexanoyl)-6-oxodecahydropyrrolo[1,2-a][1,5]diazocin-5-yl)carbamoyl)-1H-indole-5-carbonyl)phosphonic acid] | < 10 | < 10 | < 10 | > 80 |  |
| CC(=O)N1CC[C@H]2CC[C@@H](C(=O)N[C@@H](CCC(N)=O)COc3cccc(CCCCNC(=O)C[C@H](NC(=O)[C@@H]4C[C@@H](O)CN4C(=O)[C@@H](n4cc(C5CC5)nn4)C(C)(C)C)c4ccc(-c5scnc5C)cc4)c3Cl)N2C(=O)[C@@H](NC(=O)c2cc3cc(C(=O)P(=O)(O)O)ccc3[nH]2)C1 [Compound 7, (2-(((5S,8S,10aR)-3-acetyl-8-(((S)-5-amino-1-(2-chloro-3-(4-((S)-3-((2S,4R)-1-((S)-2-(4-cyclopropyl-1H-1,2,3-triazol-1-yl)-3,3-dimethylbutanoyl)-4-hydroxypyrrolidine-2-carboxamido)-3-(4-(4-methylthiazol-5-yl)phenyl)propanamido)butyl)phenoxy)-5-oxopentan-2-yl)carbamoyl)-6-oxodecahydropyrrolo[1,2-a][1,5]diazocin-5-yl)carbamoyl)-1H-indole-5-carbonyl)phosphonic acid] | 10 to 100 | < 10 | < 10 | > 80 |  |
| Cc1ncsc1-c1ccc([C@H](C)NC(=O)[C@@H]2C[C@@H](O)CN2C(=O)[C@@H](n2cc(CCCc3cccc(OC[C@H](CCC(N)=O)NC(=O)[C@@H]4CC[C@@H]5CCN(C(=O)CCN6CCN(C)CC6)C[C@H](NC(=O)c6cc7cc(C(=O)P(=O)(O)O)ccc7[nH]6)C(=O)N54)c3Cl)nn2)C(C)(C)C)cc1 [Compound 33, (2-(((5S,8S,10aR)-8-(((S)-5-amino-1-(2-chloro-3-(3-(1-((S)-1-((2S,4R)-4-hydroxy-2-(((S)-1-(4-(4-methylthiazol-5-yl)phenyl)ethyl)carbamoyl)pyrrolidin-1-yl)-3,3-dimethyl-1-oxobutan-2-yl)-1H-1,2,3-triazol-4-yl)propyl)phenoxy)-5-oxopentan-2-yl)carbamoyl)-3-(3-(4-methylpiperazin-1-yl)propanoyl)-6-oxodecahydropyrrolo[1,2-a][1,5]diazocin-5-yl)carbamoyl)-1H-indole-5-carbonyl)phosphonic acid] | 10 to 100 | 100 to 1000 | 10 to 100 | > 80 |  |
